Results reported in patent US12024510B2, “Pyrazolopyridine-diamides, their use as insecticide and processes for preparing the same” (PI INDUSTRIES LTD., priority 2017, dated 2024).

System: Plutella xylostella
Experiment: whole plant or invertebrate
Assay type: in vivo
Details: foliar, cabbage leaf dip, second instar larvae, dead and moribund combined, 72 h after release
Experimental: Test Solutions were Prepared According to the Procedure Described Herein Below (500 PPM):
• 1. Eppendorf Vortex mixer (ThermoMixer C) and 1.5 mL Eppendorf tubes • 2. Zirconia (Zirconium-Yttrium) beads having diameter of 0.8 to 1.0 mm • 3. Microscope • 4. Beaker 100 mL • 5. Micro-pipette Reagents: • 1. Surfactant Solution • 2. De-mineralized (DM) Water • 1. Weigh 10 mg of the compound of the present invention to be tested in an Eppendorf Tube. • 2. Add 200 mg of the Surfactant Solution into the tube. • 3. Add 600 mg of Zirconia beads into the above mixture. • 4. Fix the tube in Eppendorf Vortex mixer and start vortexing at 2000 rpm. • 5. Mix on Vortex mixer for 30 minutes. After 30 minutes, observe the sample over a microscope at 400× resolution. • 6. If the Maximum particle size is more than 5 μm or average particle size is more than 2 μm or the particle size distribution is uneven, continue vortexing for another 30 minutes and again check the particle size using the microscope. Continue till the average particle size is below 2 microns. • 7. When the required particle size is achieved, add 1.0 mL DM water into the tube, close the cap, shake the tube thoroughly and transfer the contents, along with the beads, into a beaker. • 8. To rinse the tube, add another 1.0 mL of DM water into the tube, close the cap, shake well and transfer this into the same beaker. • 9. Repeat Step no. 8 one more time so that the tube is rinsed well and the compound of the present invention to be tested is transferred to the beaker. • 10. Add 16.8 mL of DM water into the beaker and stir well. • 11. The homogeneous dispersion can then be decanted into a glass vial, immediately, to separate the Zirconia beads. • 12. Immediately use this sample for biological testing. • 13. Further dilutions can be prepared by taking appropriate quantity of the aliquot of Step 10, immediately after stirring, and diluting as per requirement. The sample solution must be well mixed just before biological testing.
Leaf dip method was used for screening, wherein the required quantity of the compounds were weighed and dissolved in the test solution into the tube and vortex at 2000 rpm with Zirconia beads for 90 min for proper mixing, then mixed with 0.01% Triton-X solution to get the desired test concentration. Cabbage leaves were dipped in the solution for 10 seconds, shade dried for 20 min and then transferred to bioassay trays. Single second instar larva was released into each cell and the tray was covered with lid. The bio-assay trays were kept under laboratory conditions at a temperature of 25° C. and relative humidity of 70%. Observations on dead, moribund and live larvae were recorded at 72 h after the release. Percent mortality was calculated by combining dead and moribund larvae. The following compound num.

CCCNC(=O)c1c(NC(=O)c2cc(OCC(F)(F)F)nn2-c2ncccc2Cl)c(C)cc2ccnn12 [Compound 11, 6-(1-(3-chloropyridin-2-yl)-3-(2,2,2-trifluoroethoxy)-1H-pyrazole-5-carboxamido)-5-methyl-N-propylpyrazolo[1,5-a]pyridine-7-carboxamide] showed a mortality at 300 ppm greater than 70%.

With Cc1cc2ccnn2c(C(=O)N2CC(F)(F)C2)c1NC(=O)c1cc(Br)nn1-c1ncccc1Cl [Compound 23, 3-bromo-1-(3-chloropyridin-2-yl)-N-(7-(3,3-difluoroazetidine-1-carbonyl)-5-methylpyrazolo[1,5-a]pyridin-6-yl)-1H-pyrazole-5-carboxamide] the mortality at 300 ppm was greater than 70%.

Cc1cc2ccnn2c(C(=O)N2CCC2)c1NC(=O)c1cc(Br)nn1-c1ncccc1Cl [Compound 34, N-(7-(azetidine-1-carbonyl)-5-methylpyrazolo[1,5-a]pyridin-6-yl)-3-bromo-1-(3-chloropyridin-2-yl)-1H-pyrazole-5-carboxamide] was tested, and the mortality at 300 ppm was greater than 70%.

COc1cc(C(=O)Nc2c(C)cc3ccnn3c2C(=O)N2CC(F)(F)C2)n(-c2ncccc2Cl)n1 [Compound 39, 1-(3-chloropyridin-2-yl)-N-(7-(3,3-difluoroazetidine-1-carbonyl)-5-methylpyrazolo[1,5-a]pyridin-6-yl)-3-methoxy-1H-pyrazole-5-carboxamide] was tested, and the mortality at 300 ppm was greater than 70%.

C#CCNC(=O)c1c(NC(=O)c2cc(OCC(F)(F)F)nn2-c2ncccc2Cl)c(C)cc2ccnn12 [Compound 48, 6-(1-(3-chloropyridin-2-yl)-3-(2,2,2-trifluoroethoxy)-1H-pyrazole-5-carboxamido)-5-methyl-N-(prop-2-yn-1-yl)pyrazolo[1,5-a]pyridine-7-carboxamide] was tested, and the mortality at 300 ppm was greater than 70%.

CNC(=O)c1c(NC(=O)c2cc(Oc3cc(C(F)(F)F)nn3C)nn2-c2ncccc2Cl)c(C)cc2ccnn12 [Compound 69, 6-(1-(3-chloropyridin-2-yl)-3-((1-methyl-3-(trifluoromethyl)-1H-pyrazol-5-yl)oxy)-1H-pyrazole-5-carboxamido)-N,5-dimethylpyrazolo[1,5-a]pyridine-7-carboxamide] showed a mortality at 300 ppm greater than 70%.

Compound CCNC(=O)c1c(NC(=O)c2cc(Oc3cc(C(F)(F)F)nn3C)nn2-c2ncccc2Cl)c(C)cc2ccnn12 [Compound 70, 6-(1-(3-chloropyridin-2-yl)-3-((1-methyl-3-(trifluoromethyl)-1H-pyrazol-5-yl)oxy)-1H-pyrazole-5-carboxamido)-N-ethyl-5-methylpyrazolo[1,5-a]pyridine-7-carboxamide] has a mortality at 300 ppm greater than 70%.

In the case of Cc1cc2ccnn2c(C(=O)NC2CC2)c1NC(=O)c1cc(Oc2cc(C(F)(F)F)nn2C)nn1-c1ncccc1Cl [Compound 79, 6-(1-(3-chloropyridin-2-yl)-3-((1-methyl-3-(trifluoromethyl)-1H-pyrazol-5-yl)oxy)-1H-pyrazole-5-carboxamido)-N-cyclopropyl-5-methylpyrazolo[1,5-a]pyridine-7-carboxamide], the mortality at 300 ppm is reported as greater than 70%.

Cc1cc2ccnn2c(C(=O)NCC2CC2)c1NC(=O)c1cc(Oc2cc(C(F)(F)F)nn2C)nn1-c1ncccc1Cl [Compound 80, 6-(1-(3-chloropyridin-2-yl)-3-((1-methyl-3-(trifluoromethyl)-1H-pyrazol-5-yl)oxy)-1H-pyrazole-5-carboxamido)-N-(cyclopropylmethyl)-5-methylpyrazolo[1,5-a]pyridine-7-carboxamide] showed a mortality at 300 ppm greater than 70%.

Work on COCCNC(=O)c1c(NC(=O)c2cc(Br)nn2-c2ncccc2Cl)c(Br)cc2ccnn12 [Compound 88, 5-bromo-6-(3-bromo-1-(3-chloropyridin-2-yl)-1H-pyrazole-5-carboxamido)-N-(2-methoxyethyl)pyrazolo[1,5-a]pyridine-7-carboxamide] yielded a mortality at 300 ppm greater than 70%.

Work on CCCNC(=O)c1c(NC(=O)c2cc(OC3CSC3)nn2-c2ncccc2Cl)c(C)cc2ccnn12 [Compound 103, 6-(1-(3-chloropyridin-2-yl)-3-(thietan-3-yloxy)-1H-pyrazole-5-carboxamido)-5-methyl-N-propylpyrazolo[1,5-a]pyridine-7-carboxamide] yielded a mortality at 300 ppm greater than 70%.
